Measurements reported in patent US9120774B2 (University of Kansas, priority 2009, dated 2015).
Like-named read-outs stand apart in the source and are kept apart here. Each block holds one compound with its values, some of them ahead of it.

Experiments:
Assay type in all cases: cell-based
[1] = tested on: SkBr3 (Her2 overexpressing breast cancer cells); assay: Anti-proliferation activity against SkBr3 cells (MTS/PMS); details: Homo sapiens, SK-BR-3
Procedure, shortened: (§1)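 Cells seeded at 2000/well, attached overnight, then exposed to compound at varying concentrations (1% DMSO final) for 72 hours at 37° C. Viable cells read by MTS/PMS, normalised to 1% DMSO as 100% proliferation. IC50 from separate triplicate experiments.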

[2] = tested on: MCF-7 (estrogen receptor positive breast cancer cells); assay: Anti-proliferation activity against MCF-7 cells (MTS/PMS); details: for IC50: Homo sapiens, MCF7
Procedure, shortened: as §1

[3] = tested on: LNCaP (androgen sensitive prostate cancer cells); assay: Anti-proliferation activity against LNCaP cells; details: Homo sapiens, LNCaP
Procedure, shortened: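 Cells seeded at 2000/well in Advanced DMEM/F12 with 10% FBS and attached overnight, then given compound in 1% DMSO final for 72 h at 37 °C, 5% CO2. Viable cells by MTS/PMS read-out, normalised to 1% DMSO as 100% proliferation. IC50 from separate triplicate experiments.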

[4] = tested on: PC-3 (androgen independent prostate cancer cells); assay: Anti-proliferation activity against PC-3 cells; details: for IC50: Homo sapiens, PC-3, read-out: IC50 PC-3
Procedure, shortened: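 Antiproliferative activity was tested in PC-3 androgen-independent prostate cancer cells. Cells grown at 37° C. with 5% CO2 in Advanced DMEM/F12 (1:1) containing non-essential amino acids, 2 mM L-glutamine, streptomycin, penicillin and 10% FBS were plated at 2000/well in 96-well plates. Proliferation was normalized to 1% DMSO controls, and IC50 values from triplicate experiments were fitted in GraphPad Prism.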

cancer cell lines = assay: Anti-proliferative activity, statements covering several cancer cell lines; details: for fold reduced activity versus the compound with a hydrogen at the 5-position: both breast cancer cell lines
Method: Upon completion of synthesis of library of compounds in Examples 23 and 24, the compounds were evaluated for anti-proliferative activity against SkBr3 (Her2 overexpressing breast cancer cells), MCF-7 (estrogen receptor positive breast cancer cells), HCT-116 (colon cancer cells characterized by wild-type p53), PL45 (pancreatic cancer cells), LNCaP (androgen sensitive prostate cancer cells) and PC-3 (androgen independent prostate cancer cells) cell lines. […] The monosubstituted benzamide variants improved activity.
(§2) Cells were maintained in a 1:1 mixture of Advanced DMEM/F12 (Gibco) supplemented with non-essential amino acids, L-glutamine (2 mM), streptomycin (500 ng/mL), penicillin (100 units/mL), and 10% FBS. Cells were grown to confluence in a humidified atmosphere (37° C., 5% CO2), seeded (2000/well, 100 μl) in 96-well plates, and allowed to attach overnight. Compound or GDA at varying concentrations in DMSO (1% DMSO final concentration) was added, and cells were returned to the incubator for 72 hours. At 72 hours, the number of viable cells was determined using an MTS/PMS cell proliferation kit (Promega) per the manufacturer's instructions. Cells incubated in 1% DMSO were used at 100% proliferation, and values were adjusted accordingly. IC50 values were calculated from separate experiments performed in triplicate using GraphPad Prism.
as §2, with “μg/mL),” for “ng/mL),”, “μL)” for “μl)”

[5] = tested on: HCT-116 (colon cancer cells characterized by wild-type p53); assay: Anti-proliferation activity against HCT-116 cells; details: Homo sapiens
[6] = tested on: PL45 (pancreatic cancer cells); assay: Anti-proliferation activity against PL45 cells
[7] = Table 6, 72 hours, MTS/PMS, mean ± standard deviation, read-out: IC50 SKBr3
[8] = Table 6, 72 hours, MTS/PMS, mean ± standard deviation, read-out: IC50 MCF-7
[9] = Table 6, 72 hours, MTS/PMS, mean ± standard deviation, read-out: IC50 LnCaP
[10] = Table 6, 72 hours, MTS/PMS, mean ± standard deviation
[11] = Table 4, biaryl analogues, n = 3, read-out: IC50 SkBr3
[12] = Table 4, biaryl analogues, n = 3, read-out: IC50 MCF-7
[13] = Table 4, biaryl analogues, n = 3
[14] = Table 5, heterocyclic analogues, n = 3

IC50 [1, 7]: 13.9 ± 1.2 µM
IC50 [2, 8]: 9 ± 5.4 µM
IC50 [3, 9]: 1.1 ± 0.1 µM
IC50 [4, 10]: 2.3 ± 2.9 µM
SMILES: COc1cccc(-c2cc(C(=O)Nc3cc4ccc(O[C@@H]5OC(C)(C)[C@H](OC)[C@@H](O)[C@H]5O)c(OC)c4oc3=O)ccc2OC)c1 [26g, N-(7-((2S,3R,4S,5R)-3,4-dihydroxy-5-methoxy-6,6-dimethyltetrahydro-2H-pyran-2-yloxy)-8-methoxy-2-oxo-2H-chromen-3-yl)-3′,6-dimethoxybiphenyl-3-carboxamide]
fold increased activity versus the 8-methyl derivative ([4]; PC-3 cells): 10 fold
fold improved activity over its 8-methyl counterpart (cancer cell lines; breast cancer cells): 2 fold
fold increased activity over 8-ethyl 26h (cancer cell lines; breast cancer cells): 5 fold

IC50 ([1]; Table 3, n = 3, read-out: IC50 SkBr3): 2.6 ± 0.6 µM
IC50 ([2]; Table 3, n = 3, read-out: IC50 MCF-7): 4 ± 0.3 µM
IC50 ([5]; Table 3, n = 3): 3.2 ± 0.5 µM
IC50 ([6]; Table 3, n = 3): 3 ± 1 µM
IC50 ([3]; Table 3, n = 3, read-out: IC50 LNCaP): 4.5 ± 0.7 µM
IC50 ([4]; Table 3, n = 3): 3.9 ± 0.05 µM
SMILES: CO[C@@H]1[C@@H](O)[C@@H](O)[C@H](Oc2ccc3cc(NC(=O)/C=C/c4ccccc4)c(=O)oc3c2C)OC1(C)C [compound 25, N-(7-((2R,3R,4S,5R)-3,4-Dihydroxy-5-methoxy-6,6-dimethyltetrahydro-2H-pyran-2-yloxy)-8-methyl-2-oxo-2H-chromen-3-yl)cinnamamide]
fold increase in inhibitory activity versus the saturated derivative (23) (cancer cell lines): about 3 fold

IC50 [1, 7]: 55.7 ± 6.9 µM
IC50 [2, 8]: 82.8 µM
IC50 [3, 9]: 2 ± 0.8 µM
IC50 [4, 10]: 11.3 ± 2 µM
SMILES: COc1cccc(-c2cc(C(=O)Nc3cc4c(OC)cc(O[C@@H]5OC(C)(C)[C@H](OC)[C@@H](O)[C@H]5O)c(C)c4oc3=O)ccc2OC)c1 [26d, N-(7-((2R,3R,4S,5R)-3,4-dihydroxy-5-methoxy-6,6-dimethyltetrahydro-2H-pyran-2-yloxy)-5-methoxy-8-methyl-2-oxo-2H-chromen-3-yl)-3′,6-dimethoxybiphenyl-3-carboxamide]
fold reduced activity versus the compound with a hydrogen at the 5-position (cancer cell lines): 4 fold

IC50 [1, 7]: 9 ± 0.8 µM
IC50 [2, 8]: 6.1 ± 1.7 µM
IC50 [3, 9]: 12.9 ± 4.4 µM
IC50 [4, 10]: 11.8 ± 1.3 µM
SMILES: COc1cc(O[C@@H]2OC(C)(C)[C@H](OC)[C@@H](O)[C@H]2O)c(C)c2oc(=O)c(NC(=O)c3cc4ccccc4[nH]3)cc12 [26l, N-(7-((2R,3R,4S,5R)-3,4-dihydroxy-5-methoxy-6,6-dimethyltetrahydro-2H-pyran-2-yloxy)-5-methoxy-8-methyl-2-oxo-2H-chromen-3-yl)-1H-indole-2-carboxamide]
fold reduced activity versus the compound with a hydrogen at the 5-position (cancer cell lines): 15 fold

IC50 [1, 7]: 38 ± 3 µM
IC50 [2, 8]: 13.2 ± 0.6 µM
IC50 [3, 9]: 67.6 ± 6.3 µM
IC50 [4, 10]: 73.3 ± 3.7 µM
SMILES: CO[C@@H]1[C@@H](O)[C@@H](O)[C@H](Oc2ccc3cc(NC(=O)c4cc5ccccc5[nH]4)c(=O)oc3c2Cc2ccccc2)OC1(C)C [26m, N-(8-benzyl-7-((2R,3R,4S,5R)-3,4-dihydroxy-5-methoxy-6,6-dimethyltetrahydro-2H-pyran-2-yloxy)-2-oxo-2H-chromen-3-yl)-1H-indole-2-carboxamide]
fold less active than the 8-methyl derivative ([2]; MCF-7 cells): 23 fold
fold less active than the 8-methyl analogue (cancer cell lines; PC-3 and LnCaP cells): about 4 fold

IC50 ([1]; Table 18, modified furanose or pyranose noviose replacements, read-out: IC50, SKBr3): 3.11 ± 0.19 µM
IC50 ([1]; text of Example 47, read-out: IC50 SKBr3): 3.11 ± 0.03 µM
IC50 ([2]; Table 18, modified furanose or pyranose noviose replacements, read-out: IC50, MCF7): 1.56 ± 0.09 µM
IC50 ([2]; text of Example 47, read-out: IC50 MCF-7): 1.56 ± 0.2 µM
SMILES: CC(C)=CCc1cc(C(=O)Nc2cc3ccc(O[C@@H]4C[C@H](O)CCO4)c(C)c3oc2=O)ccc1O [18b, KU-430, 4-Hydroxy-N-(7-((2R,4R)-4-hydroxytetrahydro-2H-pyran-2-yloxy)-8-methyl-2-oxo-2H-chromen-3-yl)-3-(3-methylbut-2-enyl)benzamide]
times/fold more active than DHN2 (anti-proliferative activity) (cancer cell lines): ~3 fold
times/fold more active than novobiocin (anti-proliferative activity) (cancer cell lines): ~200 fold

IC50 [1, 11]: 7.1 ± 0.6 µM
IC50 [2, 12]: 15.6 ± 6.3 µM
IC50 [5, 13]: 5.2 ± 2.1 µM
IC50 [6, 13]: 3.8 ± 1.7 µM
IC50 ([3]; Table 4, biaryl analogues, n = 3, read-out: IC50 LNCaP): 6 ± 1 µM
IC50 [4, 13]: 52.3 ± 34.7 µM
SMILES: COc1ccccc1-c1cc(C(=O)Nc2cc3ccc(O[C@@H]4OC(C)(C)[C@H](OC)[C@@H](O)[C@H]4O)c(C)c3oc2=O)ccc1OC [compound 32, N-(7-((2R,3R,4S,5R)-3,4-Dihydroxy-5-methoxy-6,6-dimethyltetrahydro-2H-pyran-2-yloxy)-8-methyl-2-oxo-2H-chromen-3-yl)-2′,6-dimethoxybiphenyl-3-carboxamide]
fold improved inhibition compared to 28 (cancer cell lines): about 2 fold

IC50 [1, 11]: 1.5 ± 0.1 µM
IC50 [2, 12]: 1.5 ± 0.1 µM
IC50 [5, 13]: 4.7 ± 1.4 µM
IC50 [6, 13]: 1.4 ± 0.2 µM
IC50 [4, 13]: 16.6 ± 4.4 µM
SMILES: COc1ccc(C(=O)Nc2cc3ccc(O[C@@H]4OC(C)(C)[C@H](OC)[C@@H](O)[C@H]4O)c(C)c3oc2=O)cc1-c1ccccc1O [compound 35, N-(7-((2R,3R,4S,5R)-3,4-Dihydroxy-5-methoxy-6,6-dimethyltetrahydro-2H-pyran-2-yloxy)-8-methyl-2-oxo-2H-chromen-3-yl)-2′-hydroxy-6-methoxybiphenyl-3-carboxamide]
fold improved inhibition compared to 28 (cancer cell lines): about 8 fold

IC50 ([1]; Table 5, heterocyclic analogues, n = 3, read-out: IC50 SkBr3): 12.2 ± 1.5 µM
IC50 ([2]; Table 5, heterocyclic analogues, n = 3, read-out: IC50 MCF-7): 5.3 ± 0.3 µM
IC50 [5, 14]: 3.5 ± 0.5 µM
IC50 [6, 14]: 1.8 ± 0.3 µM
IC50 ([3]; Table 5, heterocyclic analogues, n = 3, read-out: IC50 LNCaP): 2.3 ± 0.1 µM
IC50 [4, 14]: 4.8 ± 2.4 µM
SMILES: CO[C@@H]1[C@@H](O)[C@@H](O)[C@H](Oc2ccc3cc(NC(=O)c4c[nH]c5ccccc45)c(=O)oc3c2C)OC1(C)C [compound 47, N-(7-((2R,3R,4S,5R)-3,4-Dihydroxy-5-methoxy-6,6-dimethyltetrahydro-2H-pyran-2-yloxy)-8-methyl-2-oxo-2H-chromen-3-yl)-1H-indole-3-carboxamide]
times less effective than compound 46 (cancer cell lines): 3-10 times
